US20240116948A1, “PYRIDO OXAZINE DERIVATIVES AS ALK5 INHIBITORS” (CHIESI FARMACEUTICI S.P.A., priority 2020, published 2024)

Biological target: human ALK5 (Homo sapiens (Human), UniProt P36897)
Assay: ADP-GLO Kinases assay, inhibition of ALK5 kinase activity
Type: biochemical
Conditions: Table 12; compounds classified in term of potency; ATP at Km, 25° C.; read-out: ALK5 IC50
Description: The enzymatic activity of compounds of the present invention was monitored measuring the formation of ADP using the ADP-GLO Kinases assay. Following the incubation of the purified enzyme, a substrate and ATP, the produced ADP was converted into ATP, which in turn was converted into light by Ultra-Glo Luciferase. The luminescent signal positively correlated with ADP amount and kinase activity. Briefly, the kinase reaction was performed by incubating 2.6 nM of the purified, commercially available human ALK5 (recombinant TGF 31 N-term GST-tagged, 80-end), a final concentration of TGFβ1 peptide 94.5 μM (Promega, T36-58) and ultra-pure ATP (Promega V915B). The ATP concentration was set at the Km value (concentration of substrate which permits the enzyme to achieve half maximal velocity (Vmax)) of ALK5 (5 μM). All reactions/incubations were performed at 25° C. Compound and ALK5 kinase were mixed and incubated for 15 mins. Reactions were initiated by addition of ATP at a final concentration in the assay of […]. After an incubation of 150 min, the reaction was stopped, and ADP production detected with ADP-Glo kit according to manufacturer's indications. The assay was performed in 384-well format and was validated using a selection of reference compounds that was tested in 11 point concentration-response curve.
Compounds of the examples C1 and C2 were tested in the same in vitro assay described above.

human ALK5, sequence (P36897 80-503 limits assumed): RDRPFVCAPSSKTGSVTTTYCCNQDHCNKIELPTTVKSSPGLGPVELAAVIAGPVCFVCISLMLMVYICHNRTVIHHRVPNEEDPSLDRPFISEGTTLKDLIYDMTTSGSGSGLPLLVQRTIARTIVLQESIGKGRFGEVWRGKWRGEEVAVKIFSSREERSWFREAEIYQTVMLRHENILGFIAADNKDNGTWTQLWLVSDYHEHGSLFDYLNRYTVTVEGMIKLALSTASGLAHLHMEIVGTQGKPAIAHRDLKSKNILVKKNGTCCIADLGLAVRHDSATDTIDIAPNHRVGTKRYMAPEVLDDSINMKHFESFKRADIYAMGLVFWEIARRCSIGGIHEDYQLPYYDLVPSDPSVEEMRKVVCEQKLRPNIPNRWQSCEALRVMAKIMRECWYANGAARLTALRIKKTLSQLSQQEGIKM

Row | IC50 [nM] | SMILES
1 | 5 to 10 | Fc1ccc(Cl)cc1-c1cc(-c2cccnc2)c2c(n1)NCCO2 [Example 1, 3-[6-(5-chloro-2-fluorophenyl)-2H,3H,4H-pyrido[3,2-b][1,4]oxazin-8-yl]pyridine]
2 | 1 to 5 | Fc1ccc(Cl)cc1-c1cc(-c2cncc3ccccc23)c2c(n1)NCCO2 [Example 2, 4-[6-(5-chloro-2-fluorophenyl)-2H,3H,4H-pyrido[3,2-b][1,4]oxazin-8-yl]isoquinoline]
3 | 1 to 5 | Cc1cccc(-c2cc(-c3cncc4ccccc34)c3c(n2)NCCO3)n1 [Example 3, 4-[6-(6-methylpyridin-2-yl)-2H,3H,4H-pyrido[3,2-b][1,4]oxazin-8-yl]isoquinoline]
4 | 1 to 5 | Cc1csc(-c2cc(-c3cncc4ccccc34)c3c(n2)NCCO3)n1 [Example 4, 4-[6-(4-methyl-1,3-thiazol-2-yl)-2H,3H,4H-pyrido[3,2-b][1,4]oxazin-8-yl]isoquinoline]
5 | 1 to 5 | Nc1cncc(-c2cc(-c3cc(Cl)ccc3F)nc3c2OCCN3)c1 [Example 5, 5-[6-(5-chloro-2-fluorophenyl)-2H,3H,4H-pyrido[3,2-b][1,4]oxazin-8-yl]pyridin-3-amine]
6 | 1 to 5 | NC(=O)c1cncc(-c2cc(-c3cc(Cl)ccc3F)nc3c2OCCN3)c1 [Example 6, 5-[6-(5-chloro-2-fluorophenyl)-2H,3H,4H-pyrido[3,2-b][1,4]oxazin-8-yl]pyridine-3-carboxamide]
7 | 5 to 10 | CNC(=O)c1cncc(-c2cc(-c3cc(Cl)ccc3F)nc3c2OCCN3)c1 [Example 7, 5-[6-(5-chloro-2-fluorophenyl)-2H,3H,4H-pyrido[3,2-b][1,4]oxazin-8-yl]-N-methylpyridine-3-carboxamide]
8 | 1 to 5 | O=C(CCN1CCOCC1)Nc1cncc(-c2cc(-c3cc(Cl)ccc3F)nc3c2OCCN3)c1 [Example 9, N-{5-[6-(5-chloro-2-fluorophenyl)-2H,3H,4H-pyrido[3,2-b][1,4]oxazin-8-yl]pyridin-3-yl}-3-(morpholin-4-yl)propanamide]
9 | ≤ 1 | Fc1ccc(Cl)cc1-c1cc(-c2cnc3[nH]ncc3c2)c2c(n1)NCCO2 [Example 10, 6-(5-chloro-2-fluorophenyl)-8-{1H-pyrazolo[3,4-b]pyridin-5-yl}-2H,3H,4H-pyrido[3,2-b][1,4]oxazine]
10 | 5 to 10 | O=C(NCCN1CCOCC1)c1cncc(-c2cc(-c3cc(Cl)ccc3F)nc3c2OCCN3)c1 [Example 11, 5-[6-(5-chloro-2-fluorophenyl)-2H,3H,4H-pyrido[3,2-b][1,4]oxazin-8-yl]-N-[2-(morpholin-4-yl)ethyl]pyridine-3-carboxamide]
11 | 5 to 10 | Fc1ccc(Cl)cc1-c1cc(-c2cnc3[nH]ccc3c2)c2c(n1)NCCO2 [Example 13, 6-(5-chloro-2-fluorophenyl)-8-{1H-pyrrolo[2,3-b]pyridin-5-yl}-2H,3H,4H-pyrido[3,2-b][1,4]oxazine]
12 | 5 to 10 | Fc1ccc(Cl)cc1-c1cc(-c2cnc3[nH]cnc3c2)c2c(n1)NCCO2 [Example 14, 6-(5-chloro-2-fluorophenyl)-8-{3H-imidazo[4,5-b]pyridin-6-yl}-2H,3H,4H-pyrido[3,2-b][1,4]oxazine]
13 | 5 to 10 | CN(C)CC(=O)Nc1cncc(-c2cc(-c3cc(Cl)ccc3F)nc3c2OCCN3)c1 [Example 15, N-{5-[6-(5-chloro-2-fluorophenyl)-2H,3H,4H-pyrido[3,2-b][1,4]oxazin-8-yl]pyridin-3-yl}-2-(dimethylamino)acetamide]
14 | 1 to 5 | O=C(CCN1CCNCC1)Nc1cncc(-c2cc(-c3cc(Cl)ccc3F)nc3c2OCCN3)c1 [Example 16, N-{5-[6-(5-chloro-2-fluorophenyl)-2H,3H,4H-pyrido[3,2-b][1,4]oxazin-8-yl]pyridin-3-yl}-3-(piperazin-1-yl)propanamide]
15 | ≤ 1 | CN(C)CCCC(=O)Nc1cncc(-c2cc(-c3cc(Cl)ccc3F)nc3c2OCCN3)c1 [Example 17, N-{5-[6-(5-chloro-2-fluorophenyl)-2H,3H,4H-pyrido[3,2-b][1,4]oxazin-8-yl]pyridin-3-yl}-4-(dimethylamino)butanamide]
16 | ≤ 1 | O=C(CCN1CCCCC1)Nc1cncc(-c2cc(-c3cc(Cl)ccc3F)nc3c2OCCN3)c1 [Example 18, N-{5-[6-(5-chloro-2-fluorophenyl)-2H,3H,4H-pyrido[3,2-b][1,4]oxazin-8-yl]pyridin-3-yl}-3-(piperidin-1-yl)propanamide]
17 | 1 to 5 | COC(=O)c1cncc(-c2cc(-c3cc(Cl)ccc3F)nc3c2OCCN3)c1 [Example 19, Methyl 5-[6-(5-chloro-2-fluorophenyl)-2H,3H,4H-pyrido[3,2-b][1,4]oxazin-8-yl]pyridine-3-carboxylate]

Row | IC50 [nM] | SMILES
18 | 1 to 5 | O=C(NCCN1CCNCC1)c1cncc(-c2cc(-c3cc(Cl)ccc3F)nc3c2OCCN3)c1 [Example 20, 5-[6-(5-chloro-2-fluorophenyl)-2H,3H,4H-pyrido[3,2-b][1,4]oxazin-8-yl]-N-[2-(piperazin-1-yl)ethyl]pyridine-3-carboxamide]
19 | ≤ 1 | CN(C)CCCNC(=O)c1cncc(-c2cc(-c3cc(Cl)ccc3F)nc3c2OCCN3)c1 [Example 21, 5-[6-(5-chloro-2-fluorophenyl)-2H,3H,4H-pyrido[3,2-b][1,4]oxazin-8-yl]-N-[3-(dimethylamino)propyl]pyridine-3-carboxamide]
20 | ≤ 1 | CNCCC(=O)Nc1cncc(-c2cc(-c3cc(Cl)ccc3F)nc3c2OCCN3)c1 [Example 22, N-{5-[6-(5-chloro-2-fluorophenyl)-2H,3H,4H-pyrido[3,2-b][1,4]oxazin-8-yl]pyridin-3-yl}-3-(methylamino)propanamide]
21 | 1 to 5 | CNCCNC(=O)c1cncc(-c2cc(-c3cc(Cl)ccc3F)nc3c2OCCN3)c1 [Example 23, 5-[6-(5-chloro-2-fluorophenyl)-2H,3H,4H-pyrido[3,2-b][1,4]oxazin-8-yl]-N-[2-(methylamino)ethyl]pyridine-3-carboxamide]
22 | 1 to 5 | CN(C)CCOC(=O)c1cncc(-c2cc(-c3cc(Cl)ccc3F)nc3c2OCCN3)c1 [Example 24, 2-(dimethylamino)ethyl 5-[6-(5-chloro-2-fluorophenyl)-2H,3H,4H-pyrido[3,2-b][1,4]oxazin-8-yl]pyridine-3-carboxylate]
23 | ≤ 1 | COc1cncc(-c2cc(-c3cc(Cl)ccc3F)nc3c2OCCN3)c1 [Example 25, 3-[6-(5-chloro-2-fluorophenyl)-2H,3H,4H-pyrido[3,2-b][1,4]oxazin-8-yl]-5-methoxypyridine]
24 | 5 to 10 | O=C(NCCN1CCCC1)c1cncc(-c2cc(-c3cc(Cl)ccc3F)nc3c2OCCN3)c1 [Example 26, 5-[6-(5-chloro-2-fluorophenyl)-2H,3H,4H-pyrido[3,2-b][1,4]oxazin-8-yl]-N-[2-(pyrrolidin-1-yl)ethyl]pyridine-3-carboxamide]
25 | 1 to 5 | O=C(NCCCN1CCNCC1)c1cncc(-c2cc(-c3cc(Cl)ccc3F)nc3c2OCCN3)c1 [Example 28, 5-[6-(5-chloro-2-fluorophenyl)-2H,3H,4H-pyrido[3,2-b][1,4]oxazin-8-yl]-N-[3-(piperazin-1-yl)propyl]pyridine-3-carboxamide]
26 | 1 to 5 | Oc1cncc(-c2cc(-c3cc(Cl)ccc3F)nc3c2OCCN3)c1 [Example 29, 5-[6-(5-chloro-2-fluorophenyl)-2H,3H,4H-pyrido[3,2-b][1,4]oxazin-8-yl]pyridin-3-ol]
27 | 1 to 5 | CN(C)CCCNc1cncc(-c2cc(-c3cc(Cl)ccc3F)nc3c2OCCN3)c1 [Example 30, 5-[6-(5-chloro-2-fluorophenyl)-2H,3H,4H-pyrido[3,2-b][1,4]oxazin-8-yl]-N-[3-(dimethylamino)propyl]pyridin-3-amine]
28 | 1 to 5 | CNCCCNC(=O)c1cncc(-c2cc(-c3cc(Cl)ccc3F)nc3c2OCCN3)c1 [Example 32, 5-[6-(5-chloro-2-fluorophenyl)-2H,3H,4H-pyrido[3,2-b][1,4]oxazin-8-yl]-N-[3-(methylamino)propyl]pyridine-3-carboxamide]
29 | 1 to 5 | O=C(CCCN1CCNCC1)Nc1cncc(-c2cc(-c3cc(Cl)ccc3F)nc3c2OCCN3)c1 [Example 33, N-{5-[6-(5-chloro-2-fluorophenyl)-2H,3H,4H-pyrido[3,2-b][1,4]oxazin-8-yl]pyridin-3-yl}-4-(piperazin-1-yl)butanamide]
30 | 5 to 10 | Fc1ccc(Cl)cc1-c1cc(-c2cncc(OCC3CCCO3)c2)c2c(n1)NCCO2 (stereo not drawn) [Example 34, 3-[6-(5-chloro-2-fluorophenyl)-2H,3H,4H-pyrido[3,2-b][1,4]oxazin-8-yl]-5-[(oxolan-2-yl)methoxy]pyridine]
31 | 5 to 10 | Cc1cccc(-c2cc(-c3cnc4[nH]ncc4c3)c3c(n2)NCCO3)n1 [Example 35, 2-methyl-6-(8-{1H-pyrazolo[3,4-b]pyridin-5-yl}-2H,3H,4H-pyrido[3,2-b][1,4]oxazin-6-yl)pyridine]
32 | 1 to 5 | Fc1ccc(Cl)cc1-c1cc(-c2cncc(OC3CCOC3)c2)c2c(n1)NCCO2 (stereo not drawn) [Example 36, 3-[6-(5-chloro-2-fluorophenyl)-2H,3H,4H-pyrido[3,2-b][1,4]oxazin-8-yl]-5-(oxolan-3-yloxy)pyridine]
33 | 1 to 5 | CN1CCN(CCNC(=O)c2cncc(-c3cc(-c4cc(Cl)ccc4F)nc4c3OCCN4)c2)CC1 [Example 37, 5-[6-(5-chloro-2-fluorophenyl)-2H,3H,4H-pyrido[3,2-b][1,4]oxazin-8-yl]-N-[2-(4-methylpiperazin-1-yl)ethyl]pyridine-3-carboxamide]
